Measured values: ChEMBL document CHEMBL1221254, “Succinic acid amides as P2-P3 replacements for inhibitors of interleukin-1beta converting enzyme (ICE or caspase 1)” (Bioorg Med Chem Lett, 2010)
pIC50, pKi: −log10 of the molar value.

Experiments:
[1] = Selectivity ratio of human ICE to caspase 6
[2] = Selectivity ratio of human ICE to caspase 8
[3] = Selectivity ratio of human ICE to caspase 3
[4] = Selectivity ratio of human ICE to caspase 4
Caspase-1 = biological target: T1, Caspase-1 (Homo sapiens, UniProt P29466); assay: Inhibition of human ICE
T1 sequence (P29466 whole entry): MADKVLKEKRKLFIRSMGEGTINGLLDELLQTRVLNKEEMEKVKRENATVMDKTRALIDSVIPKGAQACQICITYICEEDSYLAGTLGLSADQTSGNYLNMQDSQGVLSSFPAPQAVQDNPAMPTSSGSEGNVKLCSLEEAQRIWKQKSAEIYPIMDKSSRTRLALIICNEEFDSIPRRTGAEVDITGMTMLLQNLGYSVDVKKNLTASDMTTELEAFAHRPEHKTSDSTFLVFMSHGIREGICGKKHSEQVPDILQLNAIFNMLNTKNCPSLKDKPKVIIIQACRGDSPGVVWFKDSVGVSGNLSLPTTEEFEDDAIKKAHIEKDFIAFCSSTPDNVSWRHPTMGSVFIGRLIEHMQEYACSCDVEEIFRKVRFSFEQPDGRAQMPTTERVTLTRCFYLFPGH

Selectivity ratio [1]	Selectivity ratio [2]	Selectivity ratio [3]	Selectivity ratio [4]	pIC50 (Caspase-1)	pKi (Caspase-1)	SMILES
> 200	> 200	> 200	> 200	6.23	7.00	CC(C)[C@H](CC(=O)N(CCOc1ccccc1)C(C)C)C(=O)N[C@H](C=O)CC(=O)O
> 200	> 200	> 200	> 200	6.77	7.67	CC(C)[C@H](CC(=O)N1CCCC(Oc2ccccc2)C1)C(=O)N[C@H](C=O)CC(=O)O (some centres undefined)
> 200	> 200	> 200	> 200	6.40	6.93	CC(C)[C@H](CC(=O)NCCC(=O)c1ccccc1)C(=O)N[C@H](C=O)CC(=O)O
> 200	> 200	> 200	> 200	8.04	8.90	Cc1cc2nc(C)n(CCNC(=O)C[C@H](C(=O)N[C@H](C=O)CC(=O)O)C(C)C)c2cc1C
> 200	> 200	> 200	> 200	7.47	7.70	CC(C)[C@H](CC(=O)NCCn1cnc2ccccc21)C(=O)N[C@H](C=O)CC(=O)O
> 200	> 200	> 200	> 200	8.44	8.52	CC(C)[C@H](CC(=O)NCCc1cc(N(C)C)nc2ccccc12)C(=O)N[C@H](C=O)CC(=O)O
> 200	> 200	> 200	> 200	–	–	CC(C)[C@H](CC(=O)NCCCc1ccccc1)C(=O)N[C@H](C=O)CC(=O)O
> 200	> 200	> 200	> 200	7.58	8.41	CC(C)[C@H](CC(=O)NCCn1c(-c2cccnc2)nc2ccccc21)C(=O)N[C@H](C=O)CC(=O)O
> 200	> 200	> 200	> 200	7.84	8.55	Cc1cc2ncn(CCNC(=O)C[C@H](C(=O)N[C@H](C=O)CC(=O)O)C(C)C)c2cc1C
> 200	> 200	> 200	> 200	8.24	9.24	CC(C)[C@H](CC(=O)NCCc1cccc2ccccc12)C(=O)N[C@H](C=O)CC(=O)O
> 200	> 200	> 200	> 200	7.92	8.37	CC(C)[C@H](CC(=O)NCCc1cncc2ccccc12)C(=O)N[C@H](C=O)CC(=O)O
> 200	> 200	> 200	> 200	8.32	8.88	CC(C)[C@H](CC(=O)NCCc1ccnc2ccccc12)C(=O)N[C@H](C=O)CC(=O)O
> 200	> 200	> 200	> 200	7.95	9.02	CC(C)[C@H](CC(=O)NCCNc1cccc(Cl)c1)C(=O)N[C@H](C=O)CC(=O)O
> 200	> 200	> 200	> 200	7.34	8.39	CC(C)[C@H](CC(=O)NCCn1ccc2ccccc21)C(=O)N[C@H](C=O)CC(=O)O
> 200	> 200	> 200	> 200	6.27	7.77	CC(C)[C@H](CC(=O)NCCOc1ccccc1)C(=O)N[C@H](C=O)CC(=O)O
> 200	> 200	> 200	> 200	7.37	9.05	Cc1c(CCNC(=O)C[C@H](C(=O)N[C@H](C=O)CC(=O)O)C(C)C)c2ccccc2n1C
